Experimental data from the NIST ThermoML archive (doi:10.1021/je400056z).

Experiment: xn = mol fraction of the nth substance listed
Conditions: Liquid, Vibrating tube method

CCCCCCC [heptane] + O=C=O
Conditions | mass density [kg/m3]
352.3 K, 20004 kPa, x2 = 0.7514 | 694.21
352.3 K, 21007 kPa, x2 = 0.7514 | 699.11
352.3 K, 22009 kPa, x2 = 0.7514 | 703.64
352.3 K, 22989 kPa, x2 = 0.7514 | 707.97
352.3 K, 24025 kPa, x2 = 0.7514 | 712.39
352.3 K, 24893 kPa, x2 = 0.7514 | 715.94
352.44 K, 4005 kPa, x2 = 0.0218 | 638.36
352.44 K, 5013 kPa, x2 = 0.0218 | 639.84
352.44 K, 6005 kPa, x2 = 0.0218 | 641.24
352.44 K, 7000 kPa, x2 = 0.0218 | 642.57
352.44 K, 8008 kPa, x2 = 0.0218 | 643.95
352.44 K, 9006 kPa, x2 = 0.0218 | 645.27
352.44 K, 10002 kPa, x2 = 0.0218 | 646.56
352.44 K, 11002 kPa, x2 = 0.0218 | 647.79
352.44 K, 12000 kPa, x2 = 0.0218 | 649.14
352.44 K, 13002 kPa, x2 = 0.0218 | 650.25
352.44 K, 13998 kPa, x2 = 0.0218 | 651.46
352.44 K, 15011 kPa, x2 = 0.0218 | 652.7
352.44 K, 16006 kPa, x2 = 0.0218 | 653.84
352.44 K, 17009 kPa, x2 = 0.0218 | 654.98
352.44 K, 17993 kPa, x2 = 0.0218 | 656.08
352.44 K, 18998 kPa, x2 = 0.0218 | 657.17
352.44 K, 20004 kPa, x2 = 0.0218 | 658.27
352.44 K, 21002 kPa, x2 = 0.0218 | 659.34
352.44 K, 22002 kPa, x2 = 0.0218 | 660.39
352.44 K, 23003 kPa, x2 = 0.0218 | 661.43
352.44 K, 23998 kPa, x2 = 0.0218 | 662.47
352.44 K, 25014 kPa, x2 = 0.0218 | 663.51
352.51 K, 9000 kPa, x2 = 0.5085 | 656.72
352.51 K, 10004 kPa, x2 = 0.5085 | 660.28
352.51 K, 11004 kPa, x2 = 0.5085 | 663.66
352.51 K, 12007 kPa, x2 = 0.5085 | 666.9
352.51 K, 13000 kPa, x2 = 0.5085 | 670.03
352.51 K, 14003 kPa, x2 = 0.5085 | 673
352.51 K, 15002 kPa, x2 = 0.5085 | 675.9
352.51 K, 15998 kPa, x2 = 0.5085 | 678.62
352.51 K, 17010 kPa, x2 = 0.5085 | 681.33
352.51 K, 18003 kPa, x2 = 0.5085 | 683.88
352.51 K, 19006 kPa, x2 = 0.5085 | 686.38
352.51 K, 20013 kPa, x2 = 0.5085 | 688.8
352.51 K, 21004 kPa, x2 = 0.5085 | 691.17
352.51 K, 22004 kPa, x2 = 0.5085 | 693.46
352.51 K, 23002 kPa, x2 = 0.5085 | 695.71
352.51 K, 24007 kPa, x2 = 0.5085 | 697.91
352.51 K, 25011 kPa, x2 = 0.5085 | 700.05
352.54 K, 15235 kPa, x2 = 0.9496 | 511.88
352.54 K, 15989 kPa, x2 = 0.9496 | 538.42
352.54 K, 17004 kPa, x2 = 0.9496 | 568.84
352.54 K, 18001 kPa, x2 = 0.9496 | 594.2
352.54 K, 18993 kPa, x2 = 0.9496 | 616.18
352.54 K, 20006 kPa, x2 = 0.9496 | 635.42
352.54 K, 20999 kPa, x2 = 0.9496 | 652.26
352.54 K, 22018 kPa, x2 = 0.9496 | 667.75
352.54 K, 22994 kPa, x2 = 0.9496 | 681.03
352.54 K, 24034 kPa, x2 = 0.9496 | 693.84
362.09 K, 12975 kPa, x2 = 0.7514 | 586.38
362.09 K, 14000 kPa, x2 = 0.7514 | 602.3
362.09 K, 14863 kPa, x2 = 0.7514 | 613.15
362.09 K, 16010 kPa, x2 = 0.7514 | 625.83
362.09 K, 17009 kPa, x2 = 0.7514 | 635.46
362.09 K, 18017 kPa, x2 = 0.7514 | 644.3
362.09 K, 19007 kPa, x2 = 0.7514 | 652.35
362.09 K, 20005 kPa, x2 = 0.7514 | 659.83
362.09 K, 21006 kPa, x2 = 0.7514 | 666.86
362.09 K, 22003 kPa, x2 = 0.7514 | 672.93
362.09 K, 22995 kPa, x2 = 0.7514 | 679.37
362.09 K, 24000 kPa, x2 = 0.7514 | 685.55
362.09 K, 24866 kPa, x2 = 0.7514 | 690.92
362.19 K, 7007 kPa, x2 = 0.3148 | 638.82
362.19 K, 8020 kPa, x2 = 0.3148 | 641.6
362.19 K, 9013 kPa, x2 = 0.3148 | 644.14
362.19 K, 10009 kPa, x2 = 0.3148 | 646.61
362.19 K, 11005 kPa, x2 = 0.3148 | 648.99
362.19 K, 12009 kPa, x2 = 0.3148 | 651.27
362.19 K, 12998 kPa, x2 = 0.3148 | 653.42
362.19 K, 13999 kPa, x2 = 0.3148 | 655.52
362.19 K, 15011 kPa, x2 = 0.3148 | 657.61
362.19 K, 16007 kPa, x2 = 0.3148 | 659.59
362.19 K, 17005 kPa, x2 = 0.3148 | 661.48
362.19 K, 18002 kPa, x2 = 0.3148 | 663.3
362.19 K, 18999 kPa, x2 = 0.3148 | 665.1
362.19 K, 20006 kPa, x2 = 0.3148 | 666.9
362.19 K, 21004 kPa, x2 = 0.3148 | 668.62
362.19 K, 22001 kPa, x2 = 0.3148 | 670.29
362.19 K, 23006 kPa, x2 = 0.3148 | 671.94
362.19 K, 24001 kPa, x2 = 0.3148 | 673.55
362.19 K, 25007 kPa, x2 = 0.3148 | 675.13
362.25 K, 17354 kPa, x2 = 0.9496 | 518.07
362.25 K, 17995 kPa, x2 = 0.9496 | 536.06
362.25 K, 19006 kPa, x2 = 0.9496 | 561.22
362.25 K, 20005 kPa, x2 = 0.9496 | 583.24
362.25 K, 21002 kPa, x2 = 0.9496 | 602.87
362.25 K, 21997 kPa, x2 = 0.9496 | 620.08
362.25 K, 22998 kPa, x2 = 0.9496 | 635.9
362.25 K, 24005 kPa, x2 = 0.9496 | 650.25
362.25 K, 24186 kPa, x2 = 0.9496 | 652.75
362.38 K, 4014 kPa, x2 = 0.0218 | 629.41
362.38 K, 5003 kPa, x2 = 0.0218 | 630.95
362.38 K, 6009 kPa, x2 = 0.0218 | 632.44
362.38 K, 7003 kPa, x2 = 0.0218 | 633.95
362.38 K, 8010 kPa, x2 = 0.0218 | 635.37
362.38 K, 9008 kPa, x2 = 0.0218 | 636.85
362.38 K, 9009 kPa, x2 = 0.5085 | 638.92
362.38 K, 10008 kPa, x2 = 0.5085 | 643.09
362.38 K, 10010 kPa, x2 = 0.0218 | 638.18
362.38 K, 10998 kPa, x2 = 0.5085 | 646.98
362.38 K, 11002 kPa, x2 = 0.0218 | 639.5
362.38 K, 12004 kPa, x2 = 0.0218 | 640.84
362.38 K, 12009 kPa, x2 = 0.5085 | 650.8
362.38 K, 13001 kPa, x2 = 0.0218 | 642.13
362.38 K, 13001 kPa, x2 = 0.5085 | 654.31
362.38 K, 14002 kPa, x2 = 0.5085 | 657.71
362.38 K, 14009 kPa, x2 = 0.0218 | 643.41
362.38 K, 15004 kPa, x2 = 0.0218 | 644.62
362.38 K, 15013 kPa, x2 = 0.5085 | 660.97
362.38 K, 16005 kPa, x2 = 0.0218 | 645.88
362.38 K, 16008 kPa, x2 = 0.5085 | 664.05
362.38 K, 16999 kPa, x2 = 0.0218 | 647.06
362.38 K, 17005 kPa, x2 = 0.5085 | 667.09
362.38 K, 18001 kPa, x2 = 0.0218 | 648.25
362.38 K, 18005 kPa, x2 = 0.5085 | 670.02
362.38 K, 18994 kPa, x2 = 0.0218 | 649.38
362.38 K, 19006 kPa, x2 = 0.5085 | 672.76
362.38 K, 19999 kPa, x2 = 0.0218 | 650.56
362.38 K, 20009 kPa, x2 = 0.5085 | 675.44
362.38 K, 21006 kPa, x2 = 0.0218 | 651.69
362.38 K, 21006 kPa, x2 = 0.5085 | 678.11
362.38 K, 22002 kPa, x2 = 0.0218 | 652.83
362.38 K, 22010 kPa, x2 = 0.5085 | 680.57
362.38 K, 23002 kPa, x2 = 0.5085 | 683.07
362.38 K, 23003 kPa, x2 = 0.0218 | 653.91
362.38 K, 23995 kPa, x2 = 0.0218 | 655.01
362.38 K, 23997 kPa, x2 = 0.5085 | 685.41
362.38 K, 25005 kPa, x2 = 0.0218 | 656.12
362.38 K, 25008 kPa, x2 = 0.5085 | 687.82
